#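 Test compounds were applied to cells in 96-well plates for 48 hours at 5 doses. Here, GI50 denotes the concentration required for 50% inhibition of growth.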 Calls of active or inactive are those of the source. Cut-off read from the data, not from the text of the source: active = GI50 up to about 1.1 µM and inactive = higher.
# How the values were obtained:
# Test in all cases: NCI tumour cell line growth inhibition, 48 h
# 786-0 = test system: 786-0
# A498 = test system: A498
# A549 = test system: A549
# ACHN = test system: ACHN
# BT-549 = test system: BT-549
# CAKI-1 = test system: CAKI-1
# CCRF-CEM = test system: CCRF-CEM
# COLO 205 = test system: COLO 205
# DU-145 = test system: DU-145
# EKVX = test system: EKVX
# HCC 2998 = test system: HCC 2998
# HCT-116 = test system: HCT-116
# HCT-15 = test system: HCT-15
# HL-60 = test system: HL-60
# HOP-62 = test system: HOP-62
# HOP-92 = test system: HOP-92
# HT-29 = test system: HT-29
# Hs-578T = test system: Hs-578T
# IGROV-1 = test system: IGROV-1
# K562 = test system: K562
# KM12 = test system: KM12
# LOX IMVI = test system: LOX IMVI
# M14 = test system: M14
# MCF7 = test system: MCF7
# MDA-MB-231 = test system: MDA-MB-231
# MDA-MB-435 = test system: MDA-MB-435
# MDA-N = test system: MDA-N
# MOLT-4 = test system: MOLT-4
# Malme-3M = test system: Malme-3M
# NCI-H226 = test system: NCI-H226
# NCI-H23 = test system: NCI-H23
# NCI-H460 = test system: NCI-H460
# NCI-H522 = test system: NCI-H522
# NCI/ADR-RES = test system: NCI/ADR-RES
# OVCAR-3 = test system: OVCAR-3
# OVCAR-4 = test system: OVCAR-4
# OVCAR-5 = test system: OVCAR-5
# OVCAR-8 = test system: OVCAR-8
# PC-3 = test system: PC-3
# RPMI-8226 = test system: RPMI-8226
# RXF 393 = test system: RXF 393
# SF-268 = test system: SF-268
# SF-295 = test system: SF-295
# SF-539 = test system: SF-539
# SK-MEL-28 = test system: SK-MEL-28
# SK-MEL-2 = test system: SK-MEL-2
# SK-MEL-5 = test system: SK-MEL-5
# SK-OV-3 = test system: SK-OV-3
# SN12C = test system: SN12C
# SNB-19 = test system: SNB-19
# SNB-75 = test system: SNB-75
# SR = test system: SR
# SW-620 = test system: SW-620
# T47D = test system: T47D
# TK-10 = test system: TK-10
# U-251 = test system: U-251
# UACC-257 = test system: UACC-257
# UACC-62 = test system: UACC-62
# UO-31 = test system: UO-31
smiles,measurement,setting,value
COC(=O)c1ccccc1CC1Cc2ccc3c(c2C1)CCC3 (configuration not stated),GI50,786-0,33.3 µM (inactive)
same,GI50,A498,> 100 µM (inactive)
same,GI50,A549,30.3 µM (inactive)
same,GI50,ACHN,30.5 µM (inactive)
same,GI50,BT-549,60.8 µM (inactive)
same,GI50,CAKI-1,45.5 µM (inactive)
same,GI50,CCRF-CEM,17.9 µM (inactive)
same,GI50,COLO 205,17.4 µM (inactive)
same,GI50,DU-145,45.1 µM (inactive)
same,GI50,EKVX,17.3 µM (inactive)
same,GI50,HCC 2998,23.8 µM (inactive)
same,GI50,HCT-116,23.3 µM (inactive)
same,GI50,HCT-15,20.4 µM
same,GI50,HL-60,13.9 µM (inactive)
same,GI50,HOP-62,38.9 µM (inactive)
same,GI50,HOP-92,20.1 µM (inactive)
same,GI50,HT-29,20 µM (inactive)
same,GI50,Hs-578T,37 µM (inactive)
same,GI50,IGROV-1,35.4 µM (inactive)
same,GI50,K562,29.6 µM (inactive)
same,GI50,KM12,30.1 µM (inactive)
same,GI50,LOX IMVI,16 µM (inactive)
same,GI50,M14,33.9 µM (inactive)
same,GI50,MCF7,14.3 µM (inactive)
same,GI50,MDA-MB-231,19.5 µM (inactive)
same,GI50,MDA-MB-435,22.9 µM (inactive)
same,GI50,MDA-N,34 µM (inactive)
same,GI50,MOLT-4,21.6 µM (inactive)
same,GI50,Malme-3M,19.4 µM (inactive)
same,GI50,NCI-H226,35.1 µM (inactive)
same,GI50,NCI-H23,38.1 µM (inactive)
same,GI50,NCI-H460,30.1 µM (inactive)
same,GI50,NCI-H522,17.7 µM (inactive)
same,GI50,NCI/ADR-RES,21 µM (inactive)
same,GI50,OVCAR-3,31.3 µM (inactive)
same,GI50,OVCAR-4,24.2 µM (inactive)
same,GI50,OVCAR-5,29.5 µM (inactive)
same,GI50,OVCAR-8,34.5 µM (inactive)
same,GI50,PC-3,29.2 µM (inactive)
same,GI50,RPMI-8226,18.1 µM (inactive)
same,GI50,RXF 393,19.1 µM (inactive)
same,GI50,SF-268,41.3 µM (inactive)
same,GI50,SF-295,35.2 µM (inactive)
same,GI50,SF-539,56.2 µM (inactive)
same,GI50,SK-MEL-28,46 µM (inactive)
same,GI50,SK-MEL-2,15.6 µM (inactive)
same,GI50,SK-MEL-5,22.1 µM (inactive)
same,GI50,SK-OV-3,32.7 µM (inactive)
same,GI50,SN12C,39.6 µM (inactive)
same,GI50,SNB-19,48.6 µM (inactive)
same,GI50,SNB-75,25.8 µM (inactive)
same,GI50,SR,5.38 µM (inactive)
same,GI50,SW-620,39.4 µM (inactive)
same,GI50,T47D,22.9 µM (inactive)
same,GI50,TK-10,21.3 µM (inactive)
same,GI50,U-251,28.6 µM (inactive)
same,GI50,UACC-257,10.4 µM (inactive)
same,GI50,UACC-62,38.5 µM (inactive)
same,GI50,UO-31,37 µM (inactive)
CCCC(CC)c1cc(O)c(O)cc1C(CC)CCC (configuration not stated),GI50,786-0,> 10 µM (inactive)
same,GI50,A498,> 10 µM (inactive)
same,GI50,A549,> 10 µM (inactive)
same,GI50,ACHN,> 10 µM (inactive)
same,GI50,BT-549,> 10 µM (inactive)
same,GI50,CAKI-1,> 10 µM (inactive)
same,GI50,CCRF-CEM,> 10 µM (inactive)
same,GI50,COLO 205,> 10 µM (inactive)
same,GI50,DU-145,> 10 µM (inactive)
same,GI50,EKVX,> 10 µM (inactive)
same,GI50,HCC 2998,> 10 µM (inactive)
same,GI50,HCT-116,> 10 µM (inactive)
same,GI50,HCT-15,> 10 µM
same,GI50,HL-60,> 10 µM (inactive)
same,GI50,HOP-62,> 10 µM (inactive)
same,GI50,HOP-92,> 10 µM (inactive)
same,GI50,HT-29,> 10 µM (inactive)
same,GI50,Hs-578T,> 10 µM (inactive)
same,GI50,IGROV-1,> 10 µM (inactive)
same,GI50,K562,> 10 µM (inactive)
same,GI50,KM12,> 10 µM (inactive)
same,GI50,LOX IMVI,> 10 µM (inactive)
same,GI50,M14,> 10 µM (inactive)
same,GI50,MCF7,> 10 µM (inactive)
same,GI50,MDA-MB-231,> 10 µM (inactive)
same,GI50,MDA-MB-435,> 10 µM (inactive)
same,GI50,MDA-N,> 10 µM (inactive)
same,GI50,MOLT-4,> 10 µM (inactive)
same,GI50,Malme-3M,> 10 µM (inactive)
same,GI50,NCI-H226,> 10 µM (inactive)
same,GI50,NCI-H23,> 10 µM (inactive)
same,GI50,NCI-H460,> 10 µM (inactive)
same,GI50,NCI-H522,> 10 µM (inactive)
same,GI50,NCI/ADR-RES,> 10 µM (inactive)
same,GI50,OVCAR-3,> 10 µM (inactive)
same,GI50,OVCAR-4,> 10 µM (inactive)
same,GI50,OVCAR-5,> 10 µM (inactive)
same,GI50,OVCAR-8,> 10 µM (inactive)
same,GI50,PC-3,> 10 µM (inactive)
same,GI50,RPMI-8226,> 10 µM (inactive)
same,GI50,RXF 393,> 10 µM (inactive)
same,GI50,SF-268,> 10 µM (inactive)
same,GI50,SF-295,> 10 µM (inactive)
same,GI50,SF-539,> 10 µM (inactive)
same,GI50,SK-MEL-28,> 10 µM (inactive)
same,GI50,SK-MEL-2,> 10 µM (inactive)
same,GI50,SK-MEL-5,> 10 µM (inactive)
same,GI50,SK-OV-3,> 10 µM (inactive)
same,GI50,SN12C,> 10 µM (inactive)
same,GI50,SNB-19,> 10 µM (inactive)
same,GI50,SNB-75,> 10 µM (inactive)
same,GI50,SR,> 10 µM (inactive)
same,GI50,SW-620,> 10 µM (inactive)
same,GI50,T47D,> 10 µM (inactive)
same,GI50,TK-10,> 10 µM (inactive)
same,GI50,U-251,> 10 µM (inactive)
same,GI50,UACC-257,> 10 µM (inactive)
same,GI50,UACC-62,> 10 µM (inactive)
same,GI50,UO-31,> 10 µM (inactive)
CCOP(=O)(OCC)C(Nc1cccc(F)c1)c1ccc(N(C)C)cc1 (configuration not stated),GI50,786-0,> 10 µM (inactive)
same,GI50,A498,> 100 µM (inactive)
same,GI50,A549,52.7 µM (inactive)
same,GI50,ACHN,> 100 µM (inactive)
same,GI50,BT-549,> 100 µM (inactive)
same,GI50,CAKI-1,> 100 µM (inactive)
same,GI50,CCRF-CEM,90.4 µM (inactive)
same,GI50,COLO 205,97.1 µM (inactive)
same,GI50,DU-145,> 100 µM (inactive)
same,GI50,EKVX,99.1 µM (inactive)
same,GI50,HCC 2998,64 µM (inactive)
same,GI50,HCT-116,48.5 µM (inactive)
same,GI50,HCT-15,78.2 µM
same,GI50,HL-60,45.7 µM (inactive)
same,GI50,HOP-62,> 100 µM (inactive)
same,GI50,HOP-92,18 µM (inactive)
same,GI50,HT-29,59.2 µM (inactive)
same,GI50,Hs-578T,> 100 µM (inactive)
same,GI50,IGROV-1,> 100 µM (inactive)
same,GI50,K562,49.1 µM (inactive)
same,GI50,KM12,> 100 µM (inactive)
same,GI50,LOX IMVI,70.5 µM (inactive)
same,GI50,M14,74.3 µM (inactive)
same,GI50,MCF7,> 100 µM (inactive)
same,GI50,MDA-MB-231,78.2 µM (inactive)
same,GI50,MDA-MB-435,> 100 µM (inactive)
same,GI50,MDA-N,> 100 µM (inactive)
same,GI50,MOLT-4,40.4 µM (inactive)
same,GI50,Malme-3M,> 100 µM (inactive)
same,GI50,NCI-H226,> 100 µM (inactive)
same,GI50,NCI-H23,> 100 µM (inactive)
same,GI50,NCI-H460,63 µM (inactive)
same,GI50,NCI-H522,75.5 µM (inactive)
same,GI50,NCI/ADR-RES,81.8 µM (inactive)
same,GI50,OVCAR-3,> 100 µM (inactive)
same,GI50,OVCAR-4,> 100 µM (inactive)
same,GI50,OVCAR-5,> 100 µM (inactive)
same,GI50,OVCAR-8,> 100 µM (inactive)
same,GI50,PC-3,62.1 µM (inactive)
same,GI50,RPMI-8226,67.6 µM (inactive)
same,GI50,RXF 393,> 100 µM (inactive)
same,GI50,SF-268,> 100 µM (inactive)
same,GI50,SF-295,57 µM (inactive)
same,GI50,SF-539,> 100 µM (inactive)
same,GI50,SK-MEL-28,> 100 µM (inactive)
same,GI50,SK-MEL-2,> 100 µM (inactive)
same,GI50,SK-MEL-5,71 µM (inactive)
same,GI50,SK-OV-3,> 100 µM (inactive)
same,GI50,SN12C,> 100 µM (inactive)
same,GI50,SNB-19,> 100 µM (inactive)
same,GI50,SNB-75,> 100 µM (inactive)
same,GI50,SR,> 100 µM (inactive)
same,GI50,SW-620,> 100 µM (inactive)
same,GI50,T47D,34.8 µM (inactive)
same,GI50,TK-10,> 100 µM (inactive)
same,GI50,U-251,> 100 µM (inactive)
same,GI50,UACC-257,76.9 µM (inactive)
same,GI50,UACC-62,50.4 µM (inactive)
same,GI50,UO-31,> 100 µM (inactive)

# From ChEMBL document CHEMBL1201862, “PubChem BioAssay data set” (2004)
